Reference: US8623879B2, “1-heterocyclyl-1,5-dihydro-pyrazolo[3,4-D] pyrimidin-4-one derivates and their use as PDE9A modulators” (Boehringer Ingelheim International GmbH, priority 2008, dated 2014)

Target: T1, human PDE9A2 (Homo sapiens, UniProt O76083)
T1 construct: made in house; host or cells: Sf9 insect cells (infected); crude lysate used as enzyme source
Experiment: PDE9A2 enzymatic activity assay (scintillation proximity assay, SPA)
Assay type: biochemical
Conditions: for inhibition at 10 µM: read-out: % inhibition of PDE9A2 (at 10 micromolar concentration), 10 micromolar concentration; for IC50: reported only as range 1-100 or 101-1200 nanomolar, specific value lies within range, read-out: IC50 within range [nanomolar (nM)]

[1] = values above 100% adjusted to 100%

T1 sequence (O76083 1-533 isoform O76083-2): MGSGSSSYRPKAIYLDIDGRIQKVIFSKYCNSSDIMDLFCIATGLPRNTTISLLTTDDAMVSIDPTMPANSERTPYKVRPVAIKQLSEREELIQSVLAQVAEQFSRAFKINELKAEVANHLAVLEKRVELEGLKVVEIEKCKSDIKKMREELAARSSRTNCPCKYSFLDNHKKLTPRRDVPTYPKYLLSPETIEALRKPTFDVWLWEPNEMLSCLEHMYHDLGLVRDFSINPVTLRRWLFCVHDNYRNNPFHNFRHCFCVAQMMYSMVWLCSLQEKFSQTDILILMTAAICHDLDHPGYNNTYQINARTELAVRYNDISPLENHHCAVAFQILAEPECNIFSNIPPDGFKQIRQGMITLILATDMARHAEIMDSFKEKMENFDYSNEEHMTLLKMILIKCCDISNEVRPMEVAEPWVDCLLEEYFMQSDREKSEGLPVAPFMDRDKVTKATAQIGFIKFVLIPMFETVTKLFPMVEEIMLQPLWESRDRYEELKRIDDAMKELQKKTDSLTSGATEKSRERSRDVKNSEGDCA

Row | SMILES | inhibition at 10 µM [1] | IC50 | % inhibition of PDE9A2 (at 10 micromolar concentration) (10 micromolar concentration, values above 100% adjusted to 100%)
1 | O=c1[nH]c(CCC2CCC2)nc2c1cnn2C1CCOCC1 [Example 40-1] | 100% | 1 to 100 nM | 
2 | O=c1[nH]c(C(F)c2ccccc2)nc2c1cnn2C1CCOCC1 (racemic) [Example 12] | 97% | 1 to 100 nM | 
3 | CC(C)(C)OC(=O)N1CCCC(n2ncc3c(=O)[nH]c(CC4CCC4)nc32)C1 (racemic) [Example 32] | 100% | 1 to 100 nM | 
4 | CC(C)(C)OC(=O)N1CCCC(n2ncc3c(=O)[nH]c(Cc4ccccc4OC(F)(F)F)nc32)C1 (racemic) [Example 19] | 99% | 1 to 100 nM | 
5 | CC(=O)N1CCCC(n2ncc3c(=O)[nH]c(Cc4ccccc4OC(F)(F)F)nc32)C1 (racemic) [Example 188] | 96% | 1 to 100 nM | 
6 | O=c1[nH]c(CC2CC2)nc2c1cnn2C1CCCOC1 (racemic) [Example 99] | 96% | 1 to 100 nM | 
7 | CC(C)Cc1nc2c(cnn2C2CCCN(C(=O)c3ccccc3)C2)c(=O)[nH]1 (racemic) [Example 177] | 93% | 101 to 1200 nM | 
8 | CC(C)Cc1nc2c(cnn2C2CCOC2)c(=O)[nH]1 (single isomer, unassigned) [Example 132-4] |  | 1 to 100 nM | 98%
9 | O=c1[nH]c(C(F)(F)c2ccccc2)nc2c1cnn2C1CCOCC1 [Example 13] | 90% | 101 to 1200 nM | 
10 | CC(C)(C)OC(=O)N1CCCC(n2ncc3c(=O)[nH]c(Cc4ccccc4)nc32)C1 (racemic) [Example 18] | 99% | 1 to 100 nM | 
11 | O=C(c1ccccc1)N1CCCC(n2ncc3c(=O)[nH]c(Cc4ccccc4)nc32)C1 (racemic) [Example 182] | 100% | 1 to 100 nM | 
12 | O=c1[nH]c(CC2CCC2)nc2c1cnn2C1CCNC1 (racemic) [Example 201] | 85% | 101 to 1200 nM | 
13 | O=c1[nH]c(CC2CC2)nc2c1cnn2C1CC[S+]([O-])CC1 (centres unmarked) [Example 236] | 93% | 101 to 1200 nM | 
14 | CC(C)Cc1nc2c(cnn2C2CCCOC2)c(=O)[nH]1 (racemic) [Example 92] | 98% | 1 to 100 nM | 
15 | CC(Cc1nc2c(cnn2C2CCOC2)c(=O)[nH]1)C(F)(F)F (mixture of isomers) [Example 72] | 91% | 101 to 1200 nM | 
16 | CN(C)C(=O)N1CCCC(n2ncc3c(=O)[nH]c(Cc4ccccc4OC(F)(F)F)nc32)C1 (racemic) [Example 161] | 95% | 101 to 1200 nM | 
17 | CC(C)(C)OC(=O)N1CCCC(n2ncc3c(=O)[nH]c(Cc4ccccc4F)nc32)C1 (racemic) [Example 23] | 99% | 1 to 100 nM | 
18 | O=c1[nH]c(Cc2cc(C(F)(F)F)ccn2)nc2c1cnn2C1CCOCC1 [Example 65] | 97% | 1 to 100 nM | 
19 | CC(=O)N1CCC(n2ncc3c(=O)[nH]c(Cc4ccccc4)nc32)CC1 [Example 152] | 93% | 101 to 1200 nM | 
20 | CC(=O)N1CCC(n2ncc3c(=O)[nH]c(Cc4ccccc4OC(F)(F)F)nc32)CC1 [Example 153] | 90% | 101 to 1200 nM | 
21 | CC(=O)N1CCC(n2ncc3c(=O)[nH]c(Cc4ccccc4OC(F)(F)F)nc32)C1 (racemic) [Example 164] | 98% | 101 to 1200 nM | 
22 | CC(=O)N1CCCC(n2ncc3c(=O)[nH]c(CC4CCCC4)nc32)C1 (racemic) [Example 157] | 97% | 1 to 100 nM | 
23 | O=c1[nH]c(Cc2ccccc2C(F)(F)F)nc2c1cnn2C1CCCCO1 (racemic) [Example 147-1] | 86% | 101 to 1200 nM | 
24 | O=c1[nH]c(CC2CCC2)nc2c1cnn2C1CCOC1 (racemic) [Example 73] | 97% | 1 to 100 nM | 
25 | CC1(C)CC(n2ncc3c(=O)[nH]c(CC4CCC4)nc32)CCO1 (racemic) [Example 108] | 89% | 101 to 1200 nM | 
